PubChem BioAssay AID2060886 (Molecular Pharmacology Branch, DTP, NCI, 2025)
pIC50: −log10 of the molar value.

Tested on: 653999-131-R-J2-PDC complex spheroids, growth inhibition
Test: Anticancer human tumor 653999-131-R-J2-PDC patient-derived lung adenocarcinoma cell line growth inhibition [RAS]
Conditions: for pIC50: curve of first compound; for viability, T/C: stronger effect = lower value
Outline: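 Multi-cell-type spheroids: tumor cells plus HUVEC endothelial cells and mesenchymal stem cells. RAS-pathway inhibitors were combined with targeted agents, each dosed in half-log steps down from clinical Cmax, or from 10 microM when Cmax was unknown.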

[1] = second compound 0.00316 µM, first compound 0.0316 µM
[2] = second compound 0.00316 µM, first compound 0.1 µM
[3] = second compound 0.00316 µM, first compound 0.316 µM
[4] = second compound 0.00316 µM, first compound 1 µM
[5] = second compound 0.01 µM, first compound 0.0316 µM
[6] = second compound 0.01 µM, first compound 0.1 µM
[7] = second compound 0.01 µM, first compound 0.316 µM
[8] = second compound 0.01 µM, first compound 1 µM
[9] = second compound 0.0316 µM, first compound 0.0316 µM
[10] = second compound 0.0316 µM, first compound 0.1 µM
[11] = second compound 0.0316 µM, first compound 0.316 µM
[12] = second compound 0.0316 µM, first compound 1 µM
[13] = second compound 0.1 µM, first compound 0.0316 µM
[14] = second compound 0.1 µM, first compound 0.1 µM
[15] = second compound 0.1 µM, first compound 0.316 µM
[16] = second compound 0.1 µM, first compound 1 µM
[17] = second compound 0.316 µM, first compound 0.0316 µM
[18] = second compound 0.316 µM, first compound 0.1 µM
[19] = second compound 0.316 µM, first compound 0.316 µM
[20] = second compound 0.316 µM, first compound 1 µM
[21] = second compound 1 µM, first compound 0.0316 µM
[22] = second compound 1 µM, first compound 0.1 µM
[23] = second compound 1 µM, first compound 0.316 µM
[24] = second compound 1 µM, first compound 1 µM
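Also: spheroids exposed to the agents for seven days before the readout.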

With C[C@@H](NC(=O)c1ncnc(N)c1Cl)c1ncc(C(=O)Nc2cc(C(F)(F)F)c(Cl)cn2)s1 + C=CC(=O)N1CCN(c2nc(OCC3CCCN3C)nc3c(F)c(-c4nc(N)cc(C)c4C(F)(F)F)c(Cl)cc23)C(C)C1 the pIC50 (second compound 0.00316 µM) was < 5.00, the pIC50 (second compound 0.01 µM) was < 5.00 and the pIC50 (second compound 0.0316 µM) was < 5.00. The pIC50 (second compound 0.1 µM) was < 5.00, the pIC50 (second compound 0.316 µM) was < 5.00 and the pIC50 (second compound 1 µM) was < 5.00. It also gave a viability, T/C [1] of 120%, a viability, T/C [2] of 85% and a viability, T/C [3] of 101%. It also gave a viability, T/C [4] of 81%, a viability, T/C (second compound 0.00316 µM, first compound 3.16 µM) of 88.5% and a viability, T/C (second compound 0.00316 µM, first compound 10 µM) of 81%. The viability, T/C [5] was 127%, the viability, T/C [6] was 108% and the viability, T/C [7] was 89%. The viability, T/C [8] was 93.5%, the viability, T/C (second compound 0.01 µM, first compound 3.16 µM) was 98% and the viability, T/C (second compound 0.01 µM, first compound 10 µM) was 71.3%. The viability, T/C [9] was 116%, the viability, T/C [10] was 90.3% and the viability, T/C [11] was 93.5%. It also gave a viability, T/C [12] of 89.9%, a viability, T/C (second compound 0.0316 µM, first compound 3.16 µM) of 84.3% and a viability, T/C (second compound 0.0316 µM, first compound 10 µM) of 73.2%. It also gave a viability, T/C [13] of 105%, a viability, T/C [14] of 95.2% and a viability, T/C [15] of 101%. It also gave a viability, T/C [16] of 94.3%, a viability, T/C (second compound 0.1 µM, first compound 3.16 µM) of 89.5% and a viability, T/C (second compound 0.1 µM, first compound 10 µM) of 84.2%. It also gave a viability, T/C [17] of 107%, a viability, T/C [18] of 96.1% and a viability, T/C [19] of 110%. It also gave a viability, T/C [20] of 97.6%, a viability, T/C (second compound 0.316 µM, first compound 3.16 µM) of 85.1% and a viability, T/C (second compound 0.316 µM, first compound 10 µM) of 86.1%. It also gave a viability, T/C [21] of 90.9%, a viability, T/C [22] of 96.7% and a viability, T/C [23] of 104%. The viability, T/C [24] was 99.5%, the viability, T/C (second compound 1 µM, first compound 3.16 µM) was 87.5% and the viability, T/C (second compound 1 µM, first compound 10 µM) was 82.2%.

With O=C(c1ccc(F)c(F)c1Nc1ccc(I)cc1F)N1CC(O)([C@@H]2CCCCN2)C1 + C=CC(=O)N1CCN(c2nc(OCC3CCCN3C)nc3c(F)c(-c4nc(N)cc(C)c4C(F)(F)F)c(Cl)cc23)C(C)C1 the pIC50 (second compound 0.00316 µM) was 7.02, the pIC50 (second compound 0.01 µM) was 7.31 and the pIC50 (second compound 0.0316 µM) was 6.95. For the same molecule, the pIC50 (second compound 0.1 µM) was 7.20, the pIC50 (second compound 0.316 µM) was 7.06 and the pIC50 (second compound 1 µM) was 7.15. It also gave a viability, T/C (second compound 0.00316 µM, first compound 0.00316 µM) of 86.1%, a viability, T/C (second compound 0.00316 µM, first compound 0.01 µM) of 83.1% and a viability, T/C [1] of 63.8%. The viability, T/C [2] was 53.6%, the viability, T/C [3] was 25% and the viability, T/C [4] was 10.2%. The viability, T/C (second compound 0.01 µM, first compound 0.00316 µM) was 94.1%, the viability, T/C (second compound 0.01 µM, first compound 0.01 µM) was 83.3% and the viability, T/C [5] was 53.2%. The viability, T/C [6] was 37.7%, the viability, T/C [7] was 24.1% and the viability, T/C [8] was 8.42%. It also gave a viability, T/C (second compound 0.0316 µM, first compound 0.00316 µM) of 105%, a viability, T/C (second compound 0.0316 µM, first compound 0.01 µM) of 86.6% and a viability, T/C [9] of 74.8%. For the same molecule, the viability, T/C [10] was 57.6%, the viability, T/C [11] was 22.4% and the viability, T/C [12] was 7.31%. For the same molecule, the viability, T/C (second compound 0.1 µM, first compound 0.00316 µM) was 96.9%, the viability, T/C (second compound 0.1 µM, first compound 0.01 µM) was 80.5% and the viability, T/C [13] was 60.6%. It also gave a viability, T/C [14] of 40.5%, a viability, T/C [15] of 29% and a viability, T/C [16] of 9.39%. It also gave a viability, T/C (second compound 0.316 µM, first compound 0.00316 µM) of 84.4%, a viability, T/C (second compound 0.316 µM, first compound 0.01 µM) of 69.9% and a viability, T/C [17] of 65.8%. It also gave a viability, T/C [18] of 51.2%, a viability, T/C [19] of 24.5% and a viability, T/C [20] of 9.08%. For the same molecule, the viability, T/C (second compound 1 µM, first compound 0.00316 µM) was 100%, the viability, T/C (second compound 1 µM, first compound 0.01 µM) was 79% and the viability, T/C [21] was 60.3%. It also gave a viability, T/C [22] of 48.8%, a viability, T/C [23] of 25.8% and a viability, T/C [24] of 11%.
